{"source": "the NIST ThermoML archive (doi:10.1016/j.fluid.2009.05.005)", "key": {"[1]": {"experiment": "activity coefficient (dimensionless); of the first substance listed, at infinite dilution; xn = mol fraction of the nth substance listed", "conditions": "101 kPa, Liquid, circulation still, x1 = 0"}, "[2]": {"experiment": "Excess molar heat capacity; xn = mol fraction of the nth substance listed", "conditions": "298.15 K; 101 kPa; Liquid; Flow calorimetry; x2 = 0"}, "[3]": {"conditions": "333.15 K, Rayleigh distillation"}, "[4]": {"conditions": "343.15 K, Rayleigh distillation"}, "[5]": {"conditions": "353.15 K, Rayleigh distillation"}}, "note": "Numbers after ± are expanded uncertainties."}
{"compound": "CN1CCCC1=O", "note": "[N-methylpyrrolidone] + O", "values": [{"measurement": "activity coefficient", "setting": "[1]; 333.15 K, differential distillation", "result": "1.34 ± 0.06"}, {"measurement": "activity coefficient", "setting": "[1]; 343.15 K, differential distillation", "result": "1.56 ± 0.06"}, {"measurement": "activity coefficient", "setting": "[1]; 353.15 K, differential distillation", "result": "1.75 ± 0.06"}, {"measurement": "activity coefficient", "setting": "[1]; 372.85 K, differential distillation", "result": "2.07 ± 0.1"}]}
{"compound": "c1ccncc1", "note": "[pyridine] + O", "values": [{"measurement": "activity coefficient", "setting": "[1]; [3]", "result": "24 ± 0.1"}, {"measurement": "activity coefficient", "setting": "[1]; [4]", "result": "25.5 ± 0.1"}, {"measurement": "activity coefficient", "setting": "[1]; [5]", "result": "26 ± 0.1"}, {"measurement": "activity coefficient", "setting": "[1]; 372.8 K, Rayleigh distillation", "result": "25.4 ± 0.1"}]}
{"compound": "C1CCNCC1", "note": "[piperidine] + O", "values": [{"measurement": "activity coefficient", "setting": "[1]; [3]", "result": "11.9 ± 0.1"}, {"measurement": "activity coefficient", "setting": "[1]; [4]", "result": "14.7 ± 0.1"}, {"measurement": "activity coefficient", "setting": "[1]; [5]", "result": "17.7 ± 0.1"}, {"measurement": "activity coefficient", "setting": "[1]; 372.6 K, Rayleigh distillation", "result": "21 ± 0.1"}]}
{"compound": "O", "note": "[water] + CN1CCCC1=O", "values": [{"measurement": "molar heat capacity", "setting": "[2]", "result": "131 ± 2", "unit": "J/K/mol"}]}
